Results taken from patent US8822645B2, “Prostaglandin E2 dual variable domain immunoglobulins and uses thereof” (AbbVie Inc., priority 2008, dated 2014).

Experiments:
[1] = test system: C57.BL/6 mice, carrageenan-induced footpad edema; test: Carrageenan-induced footpad edema model; format: in vivo, mouse; conditions: 3 mg/kg, p.o.
Protocol: Carrageenan-Induced Footpad Edema is an acute rodent model of innate immune function. Intradermal (ID) injection of an inflammatory agent causes a rapid influx of neutrophils and fluid edema, which peaks at approximately 4 hours, followed by an influx of macrophages and monocytes, which peaks at approximately 48 hours. C57.BL/6 mice (8-10-week-old, Jackson Laboratories, Bar Harbor, Me.) were injected ID in the rear footpad with 30 μL of either PBS (left) or λ-carrageenen (Sigma Aldrich, St. Louis, Mo.) in PBS (right) at a concentration of 5.0 mg/mL (150 μg/mouse). […] Significant difference for paw thickness was determined by comparing mean paw swelling for each treatment group to vehicle in a Student's two-tailed t-test.
The endpoint measured was the difference in paw swelling (edema) between right and left paws 4 hours after treatment.

human TNFα [2] = target: T1, human TNFα (Homo sapiens, UniProt P01375); test: BIAcore assay, TNFα binding kinetics and affinity
T1 sequence (P01375 77-233 limits assumed): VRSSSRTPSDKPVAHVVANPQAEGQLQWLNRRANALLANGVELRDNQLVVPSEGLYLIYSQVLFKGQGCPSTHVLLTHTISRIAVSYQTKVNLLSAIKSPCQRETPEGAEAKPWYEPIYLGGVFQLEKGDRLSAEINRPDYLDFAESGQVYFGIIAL
Protocol: The BIACORE assay (BIAcore, Inc, Piscataway, N.J.) determines the affinity of antibodies or DVD-Ig with kinetic measurements of on-rate and off-rate constants. Binding of antibodies or DVD-Ig to a target antigen (for example, a purified recombinant target antigen) is determined by surface plasmon resonance-based measurements with a BIAcore® 3000 instrument (BIAcore® AB, Uppsala, Sweden) using running HBS-EP (10 mM HEPES [pH 7.4], 150 mM NaCl, 3 mM EDTA, and 0.005% surfactant P20) at 25° C. All chemicals are obtained from BIAcore® AB (Uppsala, Sweden) or otherwise from a different source as described in the text. […] The association and dissociation rate constants, kon (M^−1 s^−1) and koff (s^−1) are determined under a continuous flow rate of 25 μl/min. […] The equilibrium dissociation constant (M) of the reaction between antibodies or DVD-Igs and the target antigen is then calculated from the kinetic rate constants by the following formula: KD=koff/kon. Binding is recorded as a function of time and kinetic rate constants are calculated. In this assay, on-rates as fast as 10^6M^−1 s^−1 and off-rates as slow as 10^−6 s^−1 can be measured. […]

[3] = test system: human TNFα transgenic B6.Cg(SJL)-Tg(TNF) N21+ mice; test: Human TNFα transgenic induced arthritis model; format: in vivo, mouse; conditions: 30 mg/kg
Protocol: Human TNFα transgenic B6.Cg(SJL)-Tg(TNF) N21+ mice (40 male and 40 females) (Taconic, Hudson, N.Y.) at 4 weeks age were divided into 10 groups of 8 mice (4 male and 4 females/group). Each week, starting from week 5 until week 12 of age the morphology of the rear ankle joints of the mice were evaluated and scored for signs and symptoms of arthritis. Arthritic scores were assigned as follows. • 0=no arthritis (normal appearance and flexion) • 1=mild arthritis (joint distortion) • 2=moderate arthritis (swelling, joint deformation); and • 3=severe arthritis (ankylosis detected on flexion and severely impaired movement)
Animals were randomized to achieve approximately similar mean arthritic score (MAS) for all groups at week 9 at first signs of symptoms. Animals were then treated i.p. twice a week starting from week 10 of age until week 12 of age. Mice in group 1 served as untreated control were administered PBS.

Dynamic light scattering = format: physicochemical; conditions: 2 mg/mL in PBS
Protocol: Samples were centrifuged at 10,000 RPM for 10 minutes before measured on DynaPro-801 Dynamic light scattering system.

human TNFα [4] = target: T1, human TNFα; test: L929 assay (TNFα induced death of L929 cells); format: cell-based, mouse; conditions: read-out: TNFα Cellular Potency IC50

Compound | % Inhibition [1] | Δ Paw Swelling ([1]; 4 hours post carrageenan) | Kd (human TNFα [2]) | maximal efficacy (inhibition of AUC of the mean arthritis score) [3] | hydrodynamic radius (Dynamic light scattering) | IC50 (human TNFα [4])
COc1ccc2c(c1)c(CC(=O)O)c(C)n2C(=O)c1ccc(Cl)cc1 [Indomethacin, reference compound] | 57 ± 3.5% | 0.486 ± 0.03 mm | – | – | – | –
D2E7: human anti-TNFα monoclonal antibody, parent of the DVD-Igs [reference compound] | – | – | 0.027 nM | 59% | 5.46 nm | 0.041 nM
